From patent publication US12617799B2, “Pyrazolopyrimidinone compounds” (Orphagen Pharmaceuticals, Inc., priority 2021, dated 2026)
Read-outs that look alike come from different tables or passages of the source.

Key:
[1] = target: T1, human SF-1 (Homo sapiens, UniProt Q13285); assay: SF-1 Luc assay (Gal4DBD-SF-1LBD luciferase reporter in transfected CHO-K1 cells); type: cell-based; settings: CHO-K1 cells transfected with GAL4-SF-1 plasmid, 40 hours incubation; read-out: hSF-1-Luc: EC50
T1 construct: expressed in transfected cells; host or cells: CHO-K1 cells (Chinese hamster ovary), transient cotransfection with pG5luc
Description: BamHI and XbaI sites introduced by the primers […] (forward) and […] (reverse) were used for subcloning the amplicon into pFA-CMV.
Cells were routinely cultured by splitting them from 1:10 to 1:20. […] Four hours after transfection, cells were trypsinized and suspended to a concentration of 1.6×10^5 cells/ml in supplemented Ham's F-12 media.
Assays: The collected cells were resuspended in the culture medium and plated into a 384 well-white plate (Corning Life Sciences, Acton, MA) at 8,000 cells/50 μL/well.
Measurement of SF-1 Transcriptional Activity: SF-1 transcriptional activity was detected as the intracellular Luc activity using SteadyLite Plus HTS Reporter Gene Assay System. After the measurement of the cell viability, the culture media in the 384 well-plate were completely removed. Then, 30 μL of the Luc substrate solution was added into each well and incubated for 10 min at room temperature. After the incubation, luminescence of each well was measured by a microplate reader.
Calculation of the SF-1 Transcriptional Activity (% of Control): The % of control for the transcriptional activity was calculated according to the following equation: % of control=A/B×100 Equation • A: luminescence count in the test article-treated CHO cells transfected with GAL4-SF-1 plasmid • B: mean luminescence count in the vehicle-treated CHO cells transfected with GAL4-SF-1 plasmid

[2] = tested on: rat Leydig tumor cell line R2C; assay: R2C proliferation assay for SF-1 antagonists (EdU incorporation); type: cell-based; settings: read-out: R2C: EC50
Procedure: SF-1 regulates progenitor cell formation and survival in adult Leydig cells. Anti-proliferative effects of SF-1 antagonists using a SF-1+ rat Leydig tumor cell line, R2C, was investigated. Cell proliferation was measured by detecting DNA incorporation of EdU, a nucleoside analogue that can be fluorescently tagged after cell fixation.
Proliferation of the rat Leydig tumor cell line R2C (ATCC® CCL-97™) was assessed using 5-ethynyl-2′-deoxyuridine (EdU), a nucleoside analogue incorporated during DNA synthesis that can be fluorescently tagged after cell fixation. Cycloheximide, a protein synthesis inhibitor, was used as a positive control for the assay.
R2C cells are maintained according to a protocol provided by the American Type Culture Collection (ATCC). At the time of assay, R2C cells were diluted to 1.0 million cells/mL with culture medium (F12 medium supplemented with 2% FBS and 1% Penicillin-Streptomycin) and 50 uL of cell suspension seeded into each well of 384-well clear bottom plates. The assay plates were incubated in a humidified, 37° C., 6% CO2 atmosphere for 24 hours. Serially diluted SF-1 antagonists, cycloheximide or vehicle (DMSO) were then applied to the R2C cells and incubated in a humidified, 37° C., 6% CO2 atmosphere for two days. EdU (Invitrogen), at a final concentration of 5 μM, was added to the cells and incubated for an additional 16 hours, after which cells were fixed with 10% formalin.
Cells were then washed and permeabilized in 0.5% TritonX-100/PBS solution at RT for 1 hour. EdU incorporation was detected by labeling EdU with 6-FAM azide (Lumiprobe) using a copper (I)-catalyzed Click reaction between an azide and alkyne. The reaction mixture consists of 5 mM ascorbic acid, 1 mM CuSO4, 1 μM 6-FAM azide dissolved in PBS buffer. […] For data normalization, the average fluorescence of DMSO wells was defined as 100%, and average fluorescence of 10 μM cycloheximide wells was defined as 0%. Curve fitting and EC50 determination were performed using the variable slope sigmoidal dose-response analysis.
R2C cells were routinely cultured in R2C culture medium. To assay SF-1 antagonist inhibitory activity, R2C cells were resuspended in the R2C plating medium and plated into a 384 well-clear bottom black plate at 20,000 cells/50 μL/well. […] 10 μL EdU plating solution were then dispensed into each well of assay plate incubated at 37° C., 6% CO2 for two days.
R2C proliferation is measured by detecting the fluorescent labelled EdU. The R2C assay plates were fixed by dispense 60 μL of 10% formalin into each well, and the plates were incubated at room temperature for 1 hour on an orbital shaker. The plates were washed with 80 μL of PBS three times, and cells were permeabilized by treating with 100 μL of PBS-0.5% TritonX-100 at RT for 1 hour on an orbital shaker. The plates were washed with 80 μL of PBS three times, and after the last wash, 25 μL of PBS was dispensed into each well. 25 μL of 2× mounting mix solution was then added into each well of fixed cells, and the plates were incubated at RT for 30 min in the dark on an orbital shaker. The cells were washed with 80 μL of PBS, three times, and after the last wash, 25 μL of PBS was dispensed into each well. […] The cells were washed with 80 μL of PBS, three times, and after the last wash, 50 μL of PBS was dispensed into each well. Assay plates were sealed with aluminum foil, and fluorescence was measured using a Envision microplate reader.
The % of control for the proliferation activity was calculated according to the following equation: % of control=100×(A−C)/(B−C) Equation • A: fluorescence count in the test article-treated R2C cells • B: mean fluorescence count in the vehicle-treated R2C cells • C: mean fluorescence count in the 10 μM cycloheximide-treated R2C cells

T1 sequence (Q13285 198-461 limits assumed): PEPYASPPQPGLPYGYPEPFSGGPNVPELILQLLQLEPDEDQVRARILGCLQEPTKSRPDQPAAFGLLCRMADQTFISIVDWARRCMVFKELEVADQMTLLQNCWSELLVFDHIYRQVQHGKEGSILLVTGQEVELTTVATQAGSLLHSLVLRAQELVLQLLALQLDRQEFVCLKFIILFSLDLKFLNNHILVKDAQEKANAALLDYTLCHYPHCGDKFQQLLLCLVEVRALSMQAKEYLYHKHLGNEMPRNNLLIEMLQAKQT

| EC50 [1] [nM] | EC50 ([2]; R2C cells, EdU incorporation) [nM] | Structure (SMILES) | EC50 ([2]; R2C) [nM] |
| --- | --- | --- | --- |
| 1000 to 10000 | 1000 to 10000 | COc1ccc(NC(=O)Cn2cnc3c(Nc4ccc(C(F)(F)F)cn4)nn(C)c3c2=O)cc1F [Compound 64, N-(3-fluoro-4-methoxyphenyl)-2-(1-methyl-7-oxo-3-((5-(trifluoromethyl)pyridin-2-yl)amino)-1,7-dihydro-6H-pyrazolo[4,3-d]pyrimidin-6-yl)acetamide] |  |
| < 200 | < 200 | Cc1cc(C(C)(C)S(C)(=O)=O)ccc1NC(=O)Cn1cnc2c(Nc3ccc(C(F)(F)F)cc3)nn(C)c2c1=O [Compound 18, N-(2-methyl-4-(2-(methylsulfonyl)propan-2-yl)phenyl)-2-(1-methyl-7-oxo-3-((4-(trifluoromethyl)phenyl)amino)-1,7-dihydro-6H-pyrazolo[4,3-d]pyrimidin-6-yl)acetamide] |  |

| Structure (SMILES) | EC50 [1] [nM] | EC50 ([2]; R2C cells, EdU incorporation) [nM] | EC50 ([2]; R2C) [nM] |
| --- | --- | --- | --- |
| CCn1nc(Nc2ccc(C(F)(F)F)cc2)c2ncn(CC(=O)Nc3ccc(OC)c(F)c3)c(=O)c21 [Compound 77, 2-(1-ethyl-7-oxo-3-((4-(trifluoromethyl)phenyl)amino)-1,7-dihydro-6H-pyrazolo[4,3-d]pyrimidin-6-yl)-N-(3-fluoro-4-methoxyphenyl)acetamide] | < 200 |  | < 200 |
